Laboratory results reported in patent US7576101B2, “Composition for and treatment of demyelinating diseases and paralysis by administration of remyelinating agents” (Elan Pharmaceuticals, Inc., priority 2003, dated 2009).
Entries after “also recorded” stand apart in the source; their conditions may differ. Where two headings read alike, the source gives them in different places.

How the values were obtained:
[1] = test system: experimental allergic encephalomyelitis in female Hartley guinea pigs; assay: Chronic EAE in guinea pigs: mean cell counts in spinal cord (H-E sections); format: in vivo, guinea pig; settings: for cell number in spinal cord vs saline-treated animals: after 10, 20, 30 or 40 days of therapy, p<0.001 two-way ANOVA; for mean cell count in spinal cord 10 days after removal vs continuous treatment: p<0.05 ANOVA on ranks with SNK test
Method: To quantify the abnormalities observed in the spinal cord, sections stained with H-E were divided into 12 representative pie-shaped areas. In each area, the number of cells within a 0.12 mm^2 field of view was counted using Sigma Scan Pro image analysis software (SPSS Inc.), and the combined mean number of cells in all 12 areas was calculated for the whole spinal cord (36 fields of view per animal). Note that as all cell nuclei were counted, the number of cells may include neurons and glial cells in addition to infiltrates.
Statistical Analysis. Statistical analysis was performed using SigmaStat v2 software (SPSS Inc.). Clinical scores were assessed using the Mann Whitney rank sum test, while pathological scores were assessed with a two-Way ANOVA. Quantitative abnormalities were compared using Kruskal-Wallis ANOVA on ranks. In each case, p<0.05 was considered significant. A linear regression was performed on the mean cell counts in the spinal cord.

[2] = test system: experimental allergic encephalomyelitis in female Hartley guinea pigs; settings: for mean clinical score day 70-80 after withdrawal (30 days treatment, 10 days off) vs continued treatment: p<0.05 Mann Whitney rank sum test; for escape from treatment: up to 40 days of treatment, compared with antibodies to α4 integrin
[3] = test system: demyelinated spinal cord lesions in chronic EAE of female Hartley guinea pigs; assay: Spontaneous remyelination in chronic EAE guinea pigs (solochrome-R-cyanin, toluidine blue semithin sections, EM, lesion area analysis); format: in vivo, guinea pig; settings: for area of thinly myelinated axons in toluidine blue semithin sections vs saline / electron microscopy of lesioned spinal cord: day 30 of treatment
IL-2, IL-10, MCP-1 = assay: Chronic EAE in guinea pigs: quantitative reverse transcription-PCR of spinal cord; format: in vivo, guinea pig; settings: for cytokine RNA (IL-2, IL-10, MCP-1) in spinal cord after withdrawal: 10 days after removal
Method: Quantitative Reverse Transcription-PCR: IL-2, IL-10, MCP-1. RNA was isolated from 30 mg of frozen guinea pig spinal cord using the S.N.A.P.™ (simple nucleic acid preparation) total RNA Isolation Kit (Invitrogen) according to manufacturer's instructions, modified to include a second DNAse treatment step followed by an additional purification over the S.N.A.P. column.
Primer/probe sequences and concentrations for IL-2, IL-10, and MCP-1 are given in Table 7, as well as the standard RNA used for each gene. RT-PCR was carried out in triplicate using the ABI PRISM® 7700 Sequence Detection System. 50 μl reactions contained 10 to 800 ng of total RNA and primers and probes at the concentrations indicated above in reaction buffer consisting of 6.67% glycerol (Amresco); 5.5 mM MgCl; 300 μM dATP, dCTP, dGTP, and dUTP; 100 nM probe; 1.25 unit of AmpliTaq Gold® DNA Polymerase (Applied Biosystems); 1× TaqMan® Buffer A (TaqMan® PCR Core reagents kit, Applied Biosystems), 20 units of RNase Inhibitor (Roche); 1.25 unit of murine leukemia virus (MULV) Reverse Transcriptase (Applied Biosystems). Reverse-transcription of RNA was carried out at 48° C. for 30 min., followed by a 10 min. denaturing step at 95° C. PCR was carried out by 40 thermo-cycles consisting of 95° C. for 15 seconds followed by 60° C. for 1 minute. Each plate included a standard curve using the standard RNA listed in Table 7 and two additional control samples: 1) a positive control RNA sample used on all plates, 2) a non-template control (NTC).
The correlation coefficients of the standard curves were greater than 0.990 for all data shown. The coefficients of variation for sample triplicates were less than 0.2. Since the RNA used for the standard curve is a heterogeneous mix of RNA containing a constant but unknown amount of the target message, the numbers calculated are relative.

[4] = listed as N-[N-(3-pyridinesulfonyl)-L-3,3-dimethyl-4-thiaprolyl]-O-[1-methylpiperzain-4-yl

CC(C)OC(=O)[C@H](Cc1ccc(OC(=O)N2CCN(C)CC2)cc1)NC(=O)[C@H]1N(S(=O)(=O)c2cccnc2)CSC1(C)C [N-[N-(3-pyridinesulfonyl)-L-3,3-dimethyl-4-thiaprolyl]-O-[1-methylpiperazin-4-ylcarbonyl]-L-tyrosine isopropyl ester]
cell number in spinal cord vs saline-treated animals [1]: significant reduction
cell number in spinal cord vs saline-treated animals [1, 4]: fewer cells
mean cell counts in spinal cord vs chronic control (d40) EAE animals ([1]; after 20, 30 or 40 days of treatment, p<0.05): significantly lower
mean cell count in spinal cord vs non-EAE animals ([1]; after 40 days of treatment): not different
mean cell count in spinal cord 10 days after removal vs continuous treatment [1]: significant increase
mean cell count in spinal cord 10 days after removal vs continuous treatment [1, 4]: significantly increased
rate of cell loss in spinal cord ([1]; slope of linear regression of mean cell counts (r^2=0.90)): 8 cells/mm^2/day
mean clinical score vs saline-treated animals over the treatment period ([2]; 30 mg/kg 2×/day s.c. from day 40 post immunization for 10-40 days, p<0.001 Mann Whitney rank sum test): significantly lower
start of clinical reversal following the initial treatment ([2]; 30 mg/kg twice a day s.c. from day 40 post immunization): 2 to 3 days
adverse side effects during prolonged administration ([2]; guinea pig, 30 mg/kg 2×/day s.c. for up to 40 days, listed as N-[N-(3-pyridinesulfonyl)-L-3,3-dimethyl-4-thiaprolyl]-O-[1-methylpiperzain-4-yl, 30 mg/kg): no adverse side effects
mean clinical score day 70-80 after withdrawal (30 days treatment, 10 days off) vs continued treatment [2]: significantly greater
mean clinical score day 70-80 after withdrawal (30 days treatment, 10 days off) vs continued treatment [2, 4]: significantly higher
hind limb paresis in animals with an established clinical score of 2 ([2]; reversion to a clinical score of 1 during treatment): reversed the paresis
escape from treatment [2]: None of the animals, however, escaped from treatment
escape from treatment [2, 4]: no escape from treatment
incidence of remyelination (lesions showing myelin pallor as percent of all lesions) vs saline ([3]; 10-40 days, time-dependent): increased the incidence of remyelination
appearance of spinal cord lesions after 10 days of treatment (solochrome-R-cyanin) ([3]; 10 days): minimal evidence of myelin pallor
appearance of spinal cord lesions after 20 days of therapy (solochrome-R-cyanin) [3]: many lesions exhibited diffuse pale blue staining
appearance of spinal cord lesions after 20 days of therapy (solochrome-R-cyanin) [3, 4]: diffuse blue stain covering the plaque
appearance of spinal cord lesions after 40 days of therapy (solochrome-R-cyanin) [3]: presented as shadow plaques
appearance of spinal cord lesions after 40 days of therapy (solochrome-R-cyanin) [3, 4]: majority of lesions showed clear myelin pallor
area of remyelination as percent of total lesion area ([3]; after 20, 30 or 40 days of therapy): 50%
degree of remyelination of individual lesions ([3]; after 20, 30 or 40 days of treatment): 0-100%
area of thinly myelinated axons in toluidine blue semithin sections vs saline [3]: greatly expanded
electron microscopy of lesioned spinal cord [3]: multiple thin myelin layers around large caliber axons
area of thinly myelinated axons in toluidine blue semithin sections vs saline [3, 4]: more extensive
electron microscopy of lesioned spinal cord [3, 4]: multiple layers of thin myelin wrappings around large diameter axons
animals that regained motor function ([3]; paralyzed guinea pigs (clinical score 2) treated up to 40 days): 50%
cytokine RNA (IL-2, IL-10, MCP-1) in spinal cord after withdrawal (IL-2, IL-10, MCP-1): returned to levels comparable to saline-treated animals
cytokine RNA (IL-2, IL-10, MCP-1) in spinal cord after withdrawal (IL-2, IL-10, MCP-1; [4]): rose to levels comparable to those in saline-treated animals
IL-2 RNA in lumbar spinal cord (IL-2, IL-10, MCP-1; during treatment, vs saline): almost no detectable
expression of inflammatory cytokine RNA (IL-2, IL-10, MCP-1) in spinal cord (IL-2, IL-10, MCP-1; during treatment, vs saline): significant reduction; also recorded: marked decrease
